Results taken from the Kinase Knowledgebase extract (Sharma et al. 2016).

Biological target: PIK3CG (human) (UniProt P48736)
Test: Inhibition of PIK3CG Kinase Activity

Chain of PIK3CG (human) (P48736 whole entry, looked up): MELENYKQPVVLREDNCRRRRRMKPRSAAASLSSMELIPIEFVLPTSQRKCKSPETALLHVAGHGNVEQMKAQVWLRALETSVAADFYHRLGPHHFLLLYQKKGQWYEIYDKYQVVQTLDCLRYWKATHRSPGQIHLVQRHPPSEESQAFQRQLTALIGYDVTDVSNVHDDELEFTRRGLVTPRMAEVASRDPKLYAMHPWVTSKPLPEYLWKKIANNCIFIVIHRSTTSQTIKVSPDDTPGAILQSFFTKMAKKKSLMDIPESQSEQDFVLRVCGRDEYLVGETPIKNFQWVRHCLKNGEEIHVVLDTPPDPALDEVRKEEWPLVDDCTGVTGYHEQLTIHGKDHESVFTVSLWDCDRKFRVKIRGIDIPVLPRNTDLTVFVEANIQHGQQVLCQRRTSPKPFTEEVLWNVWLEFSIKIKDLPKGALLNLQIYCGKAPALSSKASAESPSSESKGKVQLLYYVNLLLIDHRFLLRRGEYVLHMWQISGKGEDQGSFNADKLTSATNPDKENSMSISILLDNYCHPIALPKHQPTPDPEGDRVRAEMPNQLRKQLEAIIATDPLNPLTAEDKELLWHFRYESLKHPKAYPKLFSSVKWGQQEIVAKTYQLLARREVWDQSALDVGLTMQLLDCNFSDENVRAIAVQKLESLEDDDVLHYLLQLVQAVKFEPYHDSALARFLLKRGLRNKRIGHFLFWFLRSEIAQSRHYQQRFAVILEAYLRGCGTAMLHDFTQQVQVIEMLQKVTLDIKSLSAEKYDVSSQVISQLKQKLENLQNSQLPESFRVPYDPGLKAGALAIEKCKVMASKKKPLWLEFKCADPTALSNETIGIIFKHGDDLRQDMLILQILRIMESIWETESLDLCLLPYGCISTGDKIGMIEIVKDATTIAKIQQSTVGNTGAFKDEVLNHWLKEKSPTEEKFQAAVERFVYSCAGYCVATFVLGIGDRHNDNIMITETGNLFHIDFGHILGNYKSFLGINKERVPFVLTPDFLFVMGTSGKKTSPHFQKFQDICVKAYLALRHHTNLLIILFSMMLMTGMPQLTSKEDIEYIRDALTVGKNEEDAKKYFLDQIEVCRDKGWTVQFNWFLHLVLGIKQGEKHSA

Structure (SMILES)	IC50
CCCNS(=O)(=O)c1cncc(-c2ccc3nc(N)nn3c2)c1	< 10 µM
Nc1nc2ccc(-c3cncc(S(=O)(=O)Nc4ccc(OC(F)F)cc4)c3)cn2n1	< 10 µM
Nc1nc2ccc(-c3cncc(NS(=O)(=O)c4cc(C(F)(F)F)cc(C(F)(F)F)c4)c3)cn2n1	< 10 µM
CC(C)c1ccccc1NS(=O)(=O)c1cncc(-c2ccc3nc(N)nn3c2)c1	< 10 µM
CC(C)(C)NS(=O)(=O)c1cncc(-c2cc(F)c3nc(N)nn3c2)c1	< 10 µM
CN1CCN(S(=O)(=O)c2cncc(-c3ccc4nc(N)nn4c3)c2)CC1	< 10 µM
CN(C)C(=O)CNS(=O)(=O)c1cncc(-c2ccc3nc(N)nn3c2)c1	< 10 µM
Nc1nc2ccc(-c3cncc(NS(=O)(=O)c4ccc(C(F)(F)F)cc4)c3)cn2n1	< 10 µM
COc1ccccc1-c1ccc2nc(N)nn2c1	< 10 µM
CC(C)(C)CS(=O)(=O)c1cncc(-c2ccc3nc(N)nn3c2)c1	< 10 µM
CCNc1cccc(-c2ccc3nc(N)nn3c2)c1	< 10 µM
CC(C)(C)S(=O)(=O)c1cncc(-c2ccc3nc(N)nn3c2)c1	< 10 µM
Nc1nc2ccc(-c3cncc(NS(=O)(=O)c4cccc(OC(F)(F)F)c4)c3)cn2n1	< 10 µM
CCN(C)S(=O)(=O)c1cncc(-c2cc(F)c3nc(N)nn3c2)c1	< 10 µM
Nc1nc2ccc(-c3cncc(S(=O)(=O)Nc4cccc(OC(F)F)c4)c3)cn2n1	< 10 µM
Nc1nc2ccc(-c3ccc(S(N)(=O)=O)cc3)cn2n1	< 10 µM
CC(C)(C)NS(=O)(=O)c1cncc(-c2ccc3nc(N)nn3c2)c1	< 10 µM
Nc1nc2ccc(-c3cncc(NS(=O)(=O)c4ccc(Cl)cc4)c3)cn2n1	< 10 µM
Nc1nc2ccc(-c3cncc(S(=O)(=O)Nc4cccc(OC(F)(F)C(F)F)c4)c3)cn2n1	< 10 µM
Nc1nc2ccc(-c3cncc(S(=O)(=O)NC4CCC(O)CC4)c3)cn2n1 (centres undefined)	< 10 µM
Nc1nc2ccc(-c3ccc4c(c3)OCO4)cn2n1	< 10 µM
COc1cccc(NS(=O)(=O)c2cncc(-c3ccc4nc(N)nn4c3)c2)c1	< 10 µM
Nc1nc2ccc(-c3cncc(S(=O)(=O)Nc4ccccc4F)c3)cn2n1	< 10 µM

Structure (SMILES)	IC50
CC(=O)Nc1cccc(-c2ccc3nc(N)nn3c2)c1	< 10 µM
CS(=O)(=O)c1cncc(-c2ccc3nc(N)nn3c2)c1	< 10 µM
Nc1nc2ccc(-c3cncc(S(=O)(=O)NC4CCCC4)c3)cn2n1	< 10 µM
COc1ccc(-c2cn3nc(N)nc3cc2C)cc1OC	< 10 µM
Nc1nc2ccc(-c3cncc(S(=O)(=O)Nc4ccc(Cl)cc4)c3)cn2n1	< 10 µM
Nc1nc2ccc(-c3cccs3)cn2n1	< 10 µM
Nc1nc2ccc(-c3cncc(S(=O)(=O)NCc4ccc(F)cc4)c3)cn2n1	< 10 µM
Nc1nc2ccc(-c3cncc(SCc4ccccc4)c3)cn2n1	< 10 µM
Nc1nc2ccc(-c3cncc(S(=O)(=O)Nc4ccc(F)c(F)c4)c3)cn2n1	< 10 µM
Nc1nc2ccc(-c3cncc(Cl)c3)cn2n1	< 10 µM
Nc1nc2ccc(-c3cnc(N)c(C(F)(F)F)c3)cn2n1	< 10 µM
Nc1nc2ccc(-c3cccc(S(=O)(=O)NCCCC(=O)O)c3)cn2n1	< 10 µM
Nc1nc2ccc(-c3cncc(S(=O)(=O)N4CCC(F)(F)CC4)c3)cn2n1	< 10 µM
CC(C)(CN1CCCC1)NS(=O)(=O)c1cncc(-c2ccc3nc(N)nn3c2)c1	< 10 µM
CC(C)COc1cncc(-c2ccc3nc(N)nn3c2)c1	< 10 µM
Nc1nc2ccc(-c3cn[nH]c3)cn2n1	< 10 µM
Cn1cc(-c2ccc3nc(N)nn3c2)cn1	< 10 µM
Nc1nc2ccc(-c3cncc(Oc4ccccc4)c3)cn2n1	< 10 µM
NC(=O)c1ccc(-c2ccc3nc(N)nn3c2)cc1	< 10 µM
Nc1nc2ccc(-c3cncc(S(=O)(=O)Nc4cc(F)cc(F)c4)c3)cn2n1	< 10 µM
Nc1nc2ccc(-c3cncc(S(=O)(=O)NCC4CCC4)c3)cn2n1	< 10 µM
Nc1nc2ccc(-c3cncc(NS(=O)(=O)c4ccc5ccccc5c4)c3)cn2n1	< 10 µM
Nc1nc2ccc(-c3cncc(S(=O)(=O)Cc4ccccc4)c3)cn2n1	< 10 µM

Structure (SMILES)	IC50
CN(C)CCCNS(=O)(=O)c1cccc(-c2ccc3nc(N)nn3c2)c1	< 10 µM
Nc1nc2ccc(-c3cncc(S(=O)(=O)N4CCCC4)c3)cn2n1	< 10 µM
Nc1nc2ccc(-c3cncc(S(=O)(=O)N4CCCCC4)c3)cn2n1	< 10 µM
CN(C)CCCNS(=O)(=O)c1cncc(-c2ccc3nc(N)nn3c2)c1	< 10 µM
Nc1nc2ccc(-c3cncc(S(=O)(=O)NCCN4CCNC4=O)c3)cn2n1	< 10 µM
Nc1nc2ccc(-c3cncc(C(F)(F)F)c3)cn2n1	< 10 µM
CCCCN(C)S(=O)(=O)c1cncc(-c2ccc3nc(N)nn3c2)c1	< 10 µM
CC(C)NS(=O)(=O)c1cncc(-c2cc(F)c3nc(N)nn3c2)c1	< 10 µM
CS(=O)(=O)c1cccc(-c2ccc3nc(N)nn3c2)c1	< 10 µM
Nc1nc2ccc(-c3cncc(S(=O)(=O)NCCCC(F)(F)F)c3)cn2n1	< 10 µM
Nc1nc2ccc(-c3cncc(S(=O)(=O)Nc4ccc(F)cc4F)c3)cn2n1	< 10 µM
COc1ccc(-c2cc(Cl)c3nc(N)nn3c2)cc1OC	< 10 µM
CS(=O)(=O)c1cccc(-c2cc(F)c3nc(N)nn3c2)c1	< 10 µM
CN(C(C)(C)C)S(=O)(=O)c1cncc(-c2ccc3nc(N)nn3c2)c1	< 10 µM
Nc1nc2ccc(-c3cncc(S(=O)(=O)NCc4ccc(Cl)c(Cl)c4)c3)cn2n1	< 10 µM
COc1cc(-c2ccc3nc(N)nn3c2)cc(OC)c1OC	< 10 µM
CN(C)S(=O)(=O)c1cncc(-c2ccc3nc(N)nn3c2)c1	< 10 µM
Nc1nc2ccc(-c3ccc(F)c(F)c3)cn2n1	< 10 µM
CC(C)CCNS(=O)(=O)c1cncc(-c2ccc3nc(N)nn3c2)c1	< 10 µM
Nc1nc2ccc(-c3cncc(S(=O)(=O)NCC4CCCCCC4)c3)cn2n1	< 10 µM
CCC(CC)CNS(=O)(=O)c1cncc(-c2ccc3nc(N)nn3c2)c1	< 10 µM
Nc1nc2ccc(-c3cncc(S(=O)(=O)NC4CCOCC4)c3)cn2n1	< 10 µM
Nc1nc2ccc(-c3cccc(C(F)(F)F)c3)cn2n1	< 10 µM

Structure (SMILES)	IC50
CC(C)(C)CNS(=O)(=O)c1cncc(-c2ccc3nc(N)nn3c2)c1	< 10 µM
Nc1nc2ccc(-c3cncc(S(=O)(=O)Nc4cccc(OC(F)(F)F)c4)c3)cn2n1	< 10 µM
Nc1nc2ccc(-c3cncc(NS(=O)(=O)Cc4ccc(Cl)cc4)c3)cn2n1	< 10 µM
COc1ccccc1NS(=O)(=O)c1cncc(-c2ccc3nc(N)nn3c2)c1	< 10 µM
CC(C)(C)NC(=O)c1cncc(-c2ccc3nc(N)nn3c2)c1	< 10 µM
CC1(NS(=O)(=O)c2cncc(-c3ccc4nc(N)nn4c3)c2)CCC1	< 10 µM
Nc1nc2ccc(-c3ccc(F)cc3)cn2n1	< 10 µM
Nc1nc2ccc(-c3cncc(S(=O)(=O)N4CCc5ccccc5C4)c3)cn2n1	< 10 µM
CCCCN(Cc1ccccc1)S(=O)(=O)c1cncc(-c2ccc3nc(N)nn3c2)c1	< 10 µM
Nc1nc2ccc(-c3cncc(S(=O)(=O)Nc4cccc(F)c4F)c3)cn2n1	< 10 µM
Nc1nc2ccc(-c3cncc(S(=O)(=O)Nc4ccc(C(F)(F)F)cc4)c3)cn2n1	< 10 µM
COc1ccc(-c2ccc3nc(N)nn3c2)cc1OC(C)C	< 10 µM
COc1cc(-c2ccc3nc(N)nn3c2)ccc1OC(C)C	< 10 µM
Nc1nc2c(F)cc(-c3cncc(S(=O)(=O)NCC(F)(F)F)c3)cn2n1	< 10 µM
CN(C)CCNS(=O)(=O)c1cccc(-c2ccc3nc(N)nn3c2)c1	< 10 µM
Nc1nc2ccc(-c3cncc(S(=O)(=O)NC4CC4)c3)cn2n1	< 10 µM
CC(C)NS(=O)(=O)c1cncc(-c2ccc3nc(N)nn3c2)c1	< 10 µM
Nc1nc2ccc(-c3cncc(S(=O)(=O)NCC4CCOCC4)c3)cn2n1	< 10 µM
Nc1nc2ccc(-c3cncc(S(=O)(=O)N4CCNCC4)c3)cn2n1	< 10 µM
Nc1nc2ccc(-c3cncc(S(N)(=O)=O)c3)cn2n1	< 10 µM
CCN(C)S(=O)(=O)c1cncc(-c2ccc3nc(N)nn3c2)c1	< 10 µM
NCCNS(=O)(=O)c1cncc(-c2ccc3nc(N)nn3c2)c1	< 10 µM
Nc1nc2ccc(-c3ccc4c(c3)OCCO4)cn2n1	< 10 µM

Structure (SMILES)	IC50
CC(C)c1cccc(NS(=O)(=O)c2cncc(-c3ccc4nc(N)nn4c3)c2)c1	< 10 µM
Nc1nc2ccc(-c3cc[nH]n3)cn2n1	< 10 µM
Nc1nc2ccc(-c3cncc(S(=O)(=O)NC4CCCCC4)c3)cn2n1	< 10 µM
Nc1nc2ccc(-c3cncc(S(=O)(=O)Nc4cccc(C(F)(F)F)c4)c3)cn2n1	< 10 µM
CNS(=O)(=O)c1cncc(-c2ccc3nc(N)nn3c2)c1	< 10 µM
Nc1nc2ccc(-c3cncc(S(=O)(=O)Nc4cccc(F)c4)c3)cn2n1	< 10 µM
CC(C)(NS(=O)(=O)c1cncc(-c2ccc3nc(N)nn3c2)c1)c1ccc(F)cc1	< 10 µM
Nc1nc2ccc(-c3cncc(S(=O)(=O)N4CCOCC4)c3)cn2n1	< 10 µM
Nc1nc2ccc(-c3cncc(S(=O)(=O)N4CCC4)c3)cn2n1	< 10 µM
Nc1nc2ccc(-c3cncc(S(=O)(=O)Nc4ccc(F)cc4)c3)cn2n1	< 10 µM
CN(c1cccc(C(F)(F)F)c1)S(=O)(=O)c1cncc(-c2ccc3nc(N)nn3c2)c1	< 10 µM
Nc1nc2ccc(-c3cccc(S(=O)(=O)NCCO)c3)cn2n1	< 10 µM
CC(C)(C)NS(=O)(=O)c1cccc(-c2ccc3nc(N)nn3c2)c1	< 10 µM
NCCNS(=O)(=O)c1cccc(-c2ccc3nc(N)nn3c2)c1	< 10 µM
Nc1nc2ccc(-c3cncc(S(=O)(=O)N(Cc4ccccc4F)C4CC4)c3)cn2n1	< 10 µM
Nc1nc2ccc(-c3cccc(S(N)(=O)=O)c3)cn2n1	< 10 µM
Nc1nc2ccc(-c3cncc(OCc4ccccc4)c3)cn2n1	< 10 µM
Nc1nc2ccc(-c3cncc(S(=O)(=O)NCCC(F)(F)F)c3)cn2n1	< 10 µM
COc1ccc(NS(=O)(=O)c2cncc(-c3ccc4nc(N)nn4c3)c2)cc1	< 10 µM
Nc1nc2ccc(-c3cncc(S(=O)(=O)Nc4ccccc4C(F)(F)F)c3)cn2n1	< 10 µM
CC(C)c1ccc(S(=O)(=O)Nc2cncc(-c3ccc4nc(N)nn4c3)c2)cc1	< 10 µM
Nc1nc2ccc(-c3cncc(S(=O)(=O)NCC4CC4)c3)cn2n1	< 10 µM
